From PubChem BioAssay (NCI)
Several values for one entry are separate records, joined by “and”; a condition that tells them apart may be missing. Equal entries are not always repeated.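 The compound was tested at five concentrations on cells cultured in 96-well plates, with a 48-hour exposure period. Abbreviation: GI50, concentration required for 50% inhibition of growth. The concentration for full growth arrest is given as TGI.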 Where a SMILES comes first, the peptide text is derived from it. [ ]: non-standard residue; d: D form. The star is where a group is joined. X13 = OC[C@H](CC1CCCCC1)N*; dIva = CC[C@@](C)(N)C(=O)O; Aib = CC(C)(N)C(=O)O

tested on: MDA-MB-468 breast; experiment: NCI tumour cell line growth inhibition, 48 h

Structure (SMILES)	GI50	TGI
O=C(/C=C/c1cccnc1)NCCCCC1CCCN(C(=O)c2ccccc2)C1 (stereo not given)	13600 nM	> 100000 nM
O=C1NC(O)C(c2c[nH]c3ccccc23)=C1c1c[nH]c2ccccc12 (stereo not given)	> 25000 nM	> 25000 nM
C/C(=N/Nc1nc2ccccc2n1C)c1ccccn1	31.9 nM	239 nM
CCn1c(CN2CCN(Cc3ccccc3)CC2)nc2cc(NC(=O)c3cccs3)ccc21	6160 nM	47100 nM
O=C1/C(=C/c2ccccc2)CN(C(=O)c2cccnc2)C/C1=C\c1ccccc1	1820 nM	4240 nM
O=C1c2cc3c(cc2-c2c1c1ccc(Cl)cc1c(=O)n2CCCNCCO)OCO3	85 nM	2350 nM
CCOc1ccc(-c2nonc2NC(=O)c2cccc(C)c2)cc1OCC	17600 nM	48800 nM
CC(C)(O)CS(=O)(=O)Nc1ccc2c(c1)CCN(C(=O)COc1cccnc1)C2	> 100000 nM	> 100000 nM
C#CCC(Cc1cnc2nc(N)nc(N)c2n1)c1ccc(C(=O)N[C@@H](CCC(=O)O)C(=O)O)cc1 (stereo not given in full)	< 10 nM	> 20400 nM
C=C1C(=O)O[C@H]2[C@H]1CC/C(Cn1cc(-c3cc(C(F)(F)F)cc(C(F)(F)F)c3)nn1)=C\CC[C@@]1(C)O[C@@H]21	424 nM	1750 nM
Ic1ccccc1-c1ccccc1	85000 nM	> 100000 nM
O=c1c2ccccc2n(C[C@H]2CO2)c2ccccc12	1830 nM	3810 nM
CCOC(=O)N1CCc2cc(OC)c(OC)c3c2c1cc1cc(OC)c(OC)cc13	3170 nM	> 100000 nM
C/C(=N\Nc1cc(C)c2cc(C)ccc2n1)c1ccccn1	65.4 nM	318 nM
NC(N)=N/N=C\c1cccc(OCc2ccccc2)c1	1340 nM	2730 nM
O=[N+]([O-])c1ccc(-c2nnc(SCc3ccc(O)c4ncccc34)o2)cc1	396 nM	> 100000 nM
Cn1c(/C=C(\C#N)c2ccccc2)nc2c(N3CCOCC3)nc(Cl)nc21	688 nM	2190 nM
CC1(C)N=C(N)N=C(N)N1c1ccc(OCCCCOc2ccc(S(=O)(=O)F)cc2)c(Cl)c1	188 nM	8800 nM
COc1ccccc1CCN=C1NC(=O)/C(=C/c2ccc3ncccc3c2)S1	4590 nM	16400 nM
COC(=O)C1=C(C(=O)ON)C2C=CC1(C(Cc1ccccc1)Nc1ccccc1)O2 (stereo not given)	1420 nM	2800 nM
CC[C@H](Nc1nc(NCc2cnc(C)cc2C)c2ncn(C(C)C)c2n1)[C@@H](C)O	192 nM	470 nM
Nc1c(Br)cc(Br)c2c1[nH]c(=O)c1ccccc12	550 nM	8900 nM
O=C(CNc1ccc2c(c1)C(=O)c1ccccc1C2=O)Nc1ccc2c(c1)C(=O)c1ccccc1C2=O	896 nM	2480 nM

Structure (SMILES)	GI50	TGI
Cc1c(-c2c(-c3ccc(F)o3)sc3ncnc(O[C@H](Cc4ccccc4OCc4ccnn4CC(F)(F)F)C(=O)O)c23)ccc(OCCN2CCN(C)CC2)c1Cl	25.3 nM	105 nM
C=CC(=O)N1CCN(c2nc(=O)n(-c3c(C)ccnc3C(C)C)c3nc(-c4c(O)cccc4F)c(F)cc23)[C@@H](C)C1	22000 nM	> 81100 nM
Fc1ccc2c(c1)c(-c1nc(-c3c[nH]c4ncccc34)cs1)cn2CCCN1CCCCC1	1610 nM	3230 nM
CC(C)(C)c1nn(-c2ccccc2)c2c1C(=O)CSC(c1ccccc1Cl)N2 (stereo not given)	1010 nM	12100 nM
CC[C@@](C)(NC(=O)C(C)(C)NC(=O)[C@@H](NC(=O)[C@@H]1CCCN1C(=O)C(C)(C)NC(=O)[C@H](CC(C)C)NC(=O)CNC(=O)C(C)(C)NC(=O)[C@@H](NC(=O)C(C)(C)NC(=O)[C@H](CCC(N)=O)NC(=O)[C@H](C)NC(=O)C(C)(C)NC(=O)[C@H](C)NC(=O)C(C)(C)NC(=O)[C@H](C)NC(=O)C(C)(C)NC(C)=O)C(C)C)C(C)C)C(=O)N[C@@H](CCC(N)=O)C(=O)N[C@@H](CCC(N)=O)C(=O)N[C@H](CO)CC1CCCCC1 (Ac-[Aib]A[Aib]A[Aib]AQ[Aib]V[Aib]GL[Aib]PV[Aib][dIva]QQ-X13)	747 nM	4080 nM
CCc1c(C#N)c(S[C@@H](C(N)=O)c2ccccc2)nc(N(C)C)c1C#N	6140 nM	> 100000 nM
COc1cc(C)c(Cl)cc1C1=NN(c2ccc(S(N)(=O)=O)cc2)C(/C=C/c2ccccc2)C1 (stereo not given)	2140 nM	5790 nM
Cc1ccccc1N=Nc1ccc(NC(=O)c2ccnn2C)c(C)c1	3840 nM	70600 nM
C=C(C)[C@@H]1CC[C@]2(COC)CC[C@]3(C)[C@H](CC[C@@H]4[C@@]5(C)CCCNC(C)(C)[C@@H]5CC[C@]43C)[C@@H]12	1570 nM	3180 nM
COc1ncc(-c2ccc3nccc(-c4ccnnc4)c3c2)cc1NS(=O)(=O)c1ccc(F)cc1F	2.7 nM and < 10 nM	26.6 nM and 15.8 nM
CCCc1cc2c(=O)c(C(=O)OC)c[nH]c2cc1N(CC)CC	24400 nM	> 100000 nM
COc1cc(-c2nn(-c3cccc(NC(=O)Nc4cc(C(F)(F)F)cc(C(F)(F)F)c4)c3)cc2-c2ccncc2)ccc1Cl	236 nM	2310 nM
Cc1cc2nc3c4cc(N)ccc4n(CCN(C)C)c3nc2cc1C	1040 nM	2790 nM
CC1=C2C[C@H]3[C@@H](CC[C@@H]4CC(NS(C)(=O)=O)CC[C@@]43C)[C@@H]2CC[C@@]2(C1)O[C@@H]1C[C@H](C)CN[C@H]1[C@H]2C (stereo not given in full)	2000 nM	5620 nM
CC(C)[C@H](CO)Nc1nc(Nc2ccc(C(=O)NCCNS(=O)(=O)c3cccc4c(N(C)C)cccc34)c(Cl)c2)c2ncn(C(C)C)c2n1	1690 nM	6750 nM
O=C1C(=O)c2ccccc2C(O)=C1CC=C(Br)Br	11400 nM	41800 nM
COc1ccc(-c2nnc(SCc3ccc(O)c4ncccc34)n2-c2ccccc2)cc1	810 nM	6570 nM
COc1cc(NC2=C(Cl)C(=O)c3nc(C)ccc3C2=O)cc(OC)c1	1230 nM	2570 nM
CCC/C(=N/N=C(N)N)c1ccc(NC(=O)c2cc3cc(OC)ccc3[nH]2)cc1	2340 nM	12100 nM
COC(=O)c1c2c(c(C)[n+]([O-])c1C)C(=O)C=C(NCc1ccc(F)c(Cl)c1)C2=O	200 nM	712 nM
COc1ccc(/C=C\c2cc(OC)c(OC)c(OC)c2)cc1OC(=O)c1cccc(Cn2cc(CCOC(=O)[C@H](N)Cc3cn(C)c4ccccc34)nn2)c1	< 10 nM	3570 nM
COC1CC2CCC(C)C(O)(O2)C(=O)C(=O)N2CCCCC2C(=O)OC(C(C)CC2CCC(O)C(OC)C2)CC(=O)C(C)C=C(C)C(O)C(OC)C(=O)C(C)CC(C)/C=C/C=C/C=C1C (stereo not given)	< 5 nM	7350 nM
